Test results as given in patent publication US20210220376A1, “ADDICTION TREATMENT OF AN ALCOHOL-CONSUMING PATIENT POPULATION” (Amygdala Neurosciences, Inc., priority 2018, published 2021).

Test system: healthy male alcohol drinkers
Experiment: Phase 1 single-ascending-dose study of compound (2) coadministered with ethanol: safety
Assay type: in vivo, human
Protocol: This was a single-center, randomized, double-blind, placebo-controlled, single-ascending-dose cohort study to evaluate the safety and tolerability of the coadministration of up to 6 dose levels of compound (2) (25 mg, 50 mg, 100 mg, 200 mg, 400 mg and 600 mg) and EtOH in healthy male alcohol drinkers.
Within 27 days of the medical screening visit, subjects were enrolled and attended an inpatient Qualification Phase in which they received up to 5 standard drinks (14 grams of EtOH each; oral solution of vodka containing 40% [v/v] EtOH, mixed with a non-carbonated beverage, one drink every 30 minutes) to evaluate their tolerance to repeat administration to ensure they could safely tolerate the planned EtOH treatment. A minimum washout interval of 44 hours was performed between initiation of the last EtOH administration in the Qualification Phase and study drug administration in the Treatment Phase.
Following qualification, eligible subjects were enrolled and randomized to receive compound (2) or placebo in a 3:1 fashion in each of 6 cohorts (8 subjects per cohort). As a safety precaution, no more than 4 subjects were administered study drug on any given day. Planned compound (2) dose levels included doses of 25 mg, 50 mg, 100 mg, 200 mg, 400 mg, and 600 mg. Study drug administration occurred approximately 1 hour following ingestion of a standardized (moderate-fat) meal. Approximately 2 hours after receiving the study drug, subjects began a session of repeat EtOH administration, during which they could receive up to 5 doses of EtOH (14 grams each, approximately 1 standard drink) every 30 minutes, or until a stopping criterion applied. Safety assessments, pharmacodynamic assessments and pharmacokinetic blood sample collections were obtained up to 48 hours post-dose. Subjects were discharged after 48-hour post-dose procedures were completed and the investigator deemed it safe to do so. Subjects returned for the safety follow-up visit approximately 7 (±2) days following discharge from the Treatment Phase or after early discontinuation from the study.
The primary endpoints included frequency and severity of adverse events (AEs), ethanol reaction (ER) scores and flushing, laboratory values, vital signs, and electrocardiograms (ECGs).
Subjects' ER scores and flushing were summarized descriptively by timepoint, category and treatment. In addition, flushing, ER heat sensation and ER palpitation were compared between each of the active doses and placebo using a mixed-effect model for repeated measures (MMRM) analysis with treatment, visit, and treatment by visit as fixed effects and baseline as a covariate. The actual value was used as the dependent variable and visit included pre-EtOH, 30 minutes, 60 minutes, 90 minutes, 120 minutes, 150 minutes and 3 hours relative to the first EtOH administration in Treatment Phase. The variance-covariance matrix was assumed to be unstructured. […] Results were presented as least square means (LSMEANS), treatment differences in LSMEANS, 95% confidence intervals (CI) and p-values.
Vital signs measurements (respiratory rate, systolic and diastolic blood pressure, and heart rate) were summarized by treatment and visit. Heart rate and diastolic blood pressure were also compared between each of the active doses and placebo using an MMRM analysis with treatment, visit, and treatment by visit as fixed effects and baseline as a covariate.
Twelve-lead ECG results were summarized by timepoint and treatment, and frequencies (numbers and percentages) were calculated for the overall evaluation. Concomitant medications, clinical laboratory evaluations (raw data and change from baseline, as applicable) and physical examination findings were listed.

[1] = 200 mg, 135 min after first EtOH
[2] = 400 mg, 15 min after first EtOH
[3] = 400 mg, 45 min after first EtOH
[4] = 400 mg, 75 min after first EtOH
[5] = 400 mg, 105 min after first EtOH
[6] = 400 mg, 135 min after first EtOH
[7] = 600 mg, 15 min after first EtOH
[8] = 600 mg, 45 min after first EtOH
[9] = 600 mg, 75 min after first EtOH
[10] = 600 mg, 105 min after first EtOH
[11] = 600 mg, 135 min after first EtOH
[12] = Overall (N = 36), 15 min after first EtOH
[13] = Overall (N = 36), 45 min after first EtOH
[14] = Overall (N = 36), 75 min after first EtOH
[15] = Overall (N = 36), 105 min after first EtOH
[16] = Overall (N = 36), 135 min after first EtOH

Q: With `O=C(NCc1ccc(-c2ccn(COP(=O)(O)O)c(=O)c2)cc1)c1c(Cl)cccc1Cl` [Compound (2), phosphoric acid mono-(4-{4-[(2,6-dichloro-benzoylamino)-methyl]-phenyl}-2-oxo-2H-pyridin-1-ylmethyl) ester] as the compound, how does the “Diastolic Blood Pressure, Mean” value [1] read?
A: 69.3 mmHg

Q: And the “Heart Rate, Mean” value [1]?
A: 96.2 beats/min

Q: And the “Systolic Blood Pressure, Mean” value [1]?
A: 124.0 mmHg

Q: What about the “Diastolic Blood Pressure, Mean” value (200 mg, Pre-EtOH) of the same compound?
A: 73.8 mmHg

Q: What about the “Heart Rate, Mean” value (200 mg, Pre-EtOH) of the same compound?
A: 60.2 beats/min

Q: And the “Systolic Blood Pressure, Mean” value (200 mg, Pre-EtOH)?
A: 119.8 mmHg

Q: What about the “subjects with TEAE of sinus tachycardia” value (200 mg, after EtOH) of the same compound?
A: three

Q: And the “subjects with TEAE of tachycardia” value (200 mg, after EtOH)?
A: one

Q: And the “subjects with TEAE of tachypnea” value (200 mg, after EtOH)?
A: One

Q: What about the “QTcF Interval, Aggregate, Mean” value (200 mg, prior to initiation of repeat EtOH administration session) of the same compound?
A: 400.2 ms

Q: And the “subjects reporting a TEAE” value (400 mg)?
A: 100%

Q: And the “Diastolic Blood Pressure, Mean” value [2]?
A: 71.3 mmHg

Q: And the “Systolic Blood Pressure, Mean” value [2]?
A: 112.8 mmHg

Q: And the “Diastolic Blood Pressure, Mean” value [3]?
A: 71.8 mmHg

Q: What about the “Heart Rate, Mean” value [3] of the same compound?
A: 81.2 beats/min

Q: What about the “Systolic Blood Pressure, Mean” value [3] of the same compound?
A: 120.0 mmHg

Q: What about the “QTcF Interval, Aggregate, Mean” value (400 mg, 1 hour after initiation of repeat EtOH administration session) of the same compound?
A: 394.8 ms

Q: What about the “Diastolic Blood Pressure, Mean” value [4] of the same compound?
A: 70.5 mmHg

Q: What about the “Heart Rate, Mean” value [4] of the same compound?
A: 82.7 beats/min

Q: What about the “Systolic Blood Pressure, Mean” value [4] of the same compound?
A: 119.3 mmHg

Q: And the “Diastolic Blood Pressure, Mean” value [5]?
A: 72.2 mmHg

Q: What about the “Heart Rate, Mean” value [5] of the same compound?
A: 86.2 beats/min

Q: And the “Systolic Blood Pressure, Mean” value [5]?
A: 118.5 mmHg

Q: And the “Diastolic Blood Pressure, Mean” value [6]?
A: 71.0 mmHg

Q: And the “Heart Rate, Mean” value [6]?
A: 83.7 beats/min

Q: And the “Systolic Blood Pressure, Mean” value [6]?
A: 118.8 mmHg

Q: And the “Diastolic Blood Pressure, Mean” value (400 mg, Pre-EtOH)?
A: 71.7 mmHg

Q: What about the “Heart Rate, Mean” value (400 mg, Pre-EtOH) of the same compound?
A: 61.2 beats/min

Q: What about the “Systolic Blood Pressure, Mean” value (400 mg, Pre-EtOH) of the same compound?
A: 115.3 mmHg

Q: What about the “QTcF Interval, Aggregate, Mean” value (400 mg, prior to initiation of repeat EtOH administration session) of the same compound?
A: 396.7 ms

Q: And the “subjects reporting a TEAE” value (600 mg)?
A: 83.3%

Q: What about the “Diastolic Blood Pressure, Mean” value [7] of the same compound?
A: 75.0 mmHg

Q: And the “Systolic Blood Pressure, Mean” value [7]?
A: 122.3 mmHg

Q: What about the “Diastolic Blood Pressure, Mean” value [8] of the same compound?
A: 75.0 mmHg

Q: What about the “Heart Rate, Mean” value [8] of the same compound?
A: 85.2 beats/min

Q: And the “Systolic Blood Pressure, Mean” value [8]?
A: 127.3 mmHg

Q: What about the “QTcF Interval, Aggregate, Mean” value (600 mg, 1 hour after initiation of repeat EtOH administration session) of the same compound?
A: 394.3 ms

Q: What about the “Diastolic Blood Pressure, Mean” value [9] of the same compound?
A: 74.2 mmHg

Q: And the “Heart Rate, Mean” value [9]?
A: 91.8 beats/min

Q: What about the “Systolic Blood Pressure, Mean” value [9] of the same compound?
A: 130.2 mmHg

Q: What about the “Diastolic Blood Pressure, Mean” value [10] of the same compound?
A: 72.0 mmHg

Q: And the “Heart Rate, Mean” value [10]?
A: 91.8 beats/min

Q: What about the “Systolic Blood Pressure, Mean” value [10] of the same compound?
A: 126.8 mmHg

Q: And the “Diastolic Blood Pressure, Mean” value [11]?
A: 74.8 mmHg

Q: What about the “Heart Rate, Mean” value [11] of the same compound?
A: 92.3 beats/min

Q: What about the “Systolic Blood Pressure, Mean” value [11] of the same compound?
A: 127.7 mmHg

Q: What about the “Diastolic Blood Pressure, Mean” value (600 mg, Pre-EtOH) of the same compound?
A: 75.2 mmHg

Q: And the “Heart Rate, Mean” value (600 mg, Pre-EtOH)?
A: 61.2 beats/min

Q: What about the “Systolic Blood Pressure, Mean” value (600 mg, Pre-EtOH) of the same compound?
A: 120.2 mmHg

Q: What about the “QTcF Interval, Aggregate, Mean” value (600 mg, prior to initiation of repeat EtOH administration session) of the same compound?
A: 393.8 ms

Q: And the “deaths or serious adverse events” value (25-600 mg oral with up to 5 doses of EtOH (14 g each))?
A: no deaths or serious adverse events

Q: And the “Diastolic Blood Pressure, Mean” value [12]?
A: 74.0 mmHg

Q: And the “Systolic Blood Pressure, Mean” value [12]?
A: 118.8 mmHg

Q: And the “Diastolic Blood Pressure, Mean” value [13]?
A: 73.4 mmHg

Q: And the “Heart Rate, Mean” value [13]?
A: 76.6 beats/min

Q: And the “Systolic Blood Pressure, Mean” value [13]?
A: 122.0 mmHg

Q: What about the “QTcF Interval, Aggregate, Mean” value (Overall (N = 36), 1 hour after initiation of repeat EtOH administration session) of the same compound?
A: 401.1 ms

Q: And the “Diastolic Blood Pressure, Mean” value [14]?
A: 72.5 mmHg

Q: And the “Heart Rate, Mean” value [14]?
A: 82.9 beats/min

Q: And the “Systolic Blood Pressure, Mean” value [14]?
A: 122.3 mmHg

Q: What about the “Diastolic Blood Pressure, Mean” value [15] of the same compound?
A: 71.3 mmHg

Q: And the “Heart Rate, Mean” value [15]?
A: 85.3 beats/min

Q: What about the “Systolic Blood Pressure, Mean” value [15] of the same compound?
A: 121.7 mmHg

Q: What about the “Diastolic Blood Pressure, Mean” value [16] of the same compound?
A: 72.8 mmHg

Q: And the “Heart Rate, Mean” value [16]?
A: 82.5 beats/min

Q: What about the “Systolic Blood Pressure, Mean” value [16] of the same compound?
A: 121.3 mmHg

Q: What about the “Diastolic Blood Pressure, Mean” value (Overall (N = 36), Pre-EtOH) of the same compound?
A: 73.4 mmHg

Q: And the “Heart Rate, Mean” value (Overall (N = 36), Pre-EtOH)?
A: 59.3 beats/min

Q: And the “Systolic Blood Pressure, Mean” value (Overall (N = 36), Pre-EtOH)?
A: 117.3 mmHg

Q: And the “QTcF Interval, Aggregate, Mean” value (Overall (N = 36), prior to initiation of repeat EtOH administration session)?
A: 399.4 ms

Q: What about the “changes in diastolic blood pressure compared with placebo” value (after EtOH administration) of the same compound?
A: no significant changes

Q: And the “changes in systolic blood pressure compared with placebo” value (after EtOH administration)?
A: no significant changes

Q: What about the “subjects reporting a TEAE” value (all compound (2)-treated subjects) of the same compound?
A: 88.9%

Q: What about the “incidence of flushing and feeling hot compared with placebo” value (all doses) of the same compound?
A: higher

Q: And the “compound (2)-treated subjects who did not consume all 5 EtOH administrations due to TEAEs” value (all doses, N = 36)?
A: 5.6%

Q: And the flushing (all other doses (50-600 mg))?
A: observed

Q: And the tolerability (all treatments)?
A: generally well tolerated

Q: What about the “ER subjective assessment compared with placebo” value (heat sensation, palpitations) of the same compound?
A: more likely to report feeling heat sensation and feeling palpitations
